Reference: ChEMBL document CHEMBL2202983, “Structure-anti-leukemic activity relationship study of ortho-dihydroxycoumarins in U-937 cells: key role of the δ-lactone ring in determining differentiation-inducing potency and selective pro-apoptotic action” (Bioorg Med Chem, 2012)
Activity calls are given as the source filed them. No cut-off for these calls is given here.

What was measured:
U-937 [1] = assay: Induction of cell differentiation in human U937 cells assessed as increase of CD11b and CD14 expression at 500 uM after 72 hrs by FACS flow cytometer analysis; type: functional, cell-based
U-937 [2] = assay: Induction of apoptosis in human U937 cells assessed as activation of caspase-3 at 500 uM after 24 hrs by colorimetric assay; type: functional, cell-based
U-937 [3] = assay: Cytotoxicity against human U937 cells after 48 hrs by trypan blue assay; type: functional; details: U-937, 48 h
U-937 [4] = assay: Antiproliferative activity against human U937 cells assessed as incorporation of [3H]-methyl-thymidine after 12 hrs by scintillation counting; type: functional, cell-based
[5] = Pro-oxidant activity in 0.1 M potassium phosphate buffer at pH 7.4 assessed as increase of oxidation potential by cyclic voltammetry analysis; type: physicochemical
Jurkat [6] = assay: Induction of apoptosis in human Jurkat cells assessed as activation of caspase-3-mediated PARP cleavage at 500 uM after 24 hrs by colorimetric assay; type: functional, cell-based
PBMC = assay: Cytotoxicity against human PBMC at 500 uM after 48 hrs by trypan blue assay; type: cell-based
U-937 [7] = assay: Pro-oxidant activity in human U937 cells assessed as DCF-DA oxidation at 10 to 250 uM after 48 hrs by fluorescence assay; type: functional, cell-based
U-937 [8] = assay: Induction of apoptosis in human U937 cells assessed as phosphatidylserine expression in plasma membrane at 500 uM after 24 hrs by Annexin V-FITC double staining; type: functional, cell-based
U-937 [9] = assay: Induction of cell differentiation in human U937 cells assessed as increase of CD88 expression at 500 uM after 72 hrs by FACS flow cytometer analysis; type: functional, cell-based
U-937 [10] = assay: Induction of cell differentiation in human U937 cells assessed as increase of rhC5a-induced response at 500 uM after 72 hrs by FACS flow cytometer analysis; type: functional, cell-based
U-937 [11] = assay: Inhibition of clonogenic activity in human U937 cells assessed as reduction of colony formation in soft agar at 100 to 250 uM after 24 hrs using crystal violet staining; type: functional, cell-based
U-937 [12] = assay: Induction of apoptosis in human U937 cells assessed as reduction of normal cells at 250 uM after 24 hrs by Annexin V-FITC double staining; type: functional, cell-based
U-937 [13] = assay: Induction of apoptosis in human U937 cells assessed as PARP cleavage at 250 uM after 24 hrs by Western blot analysis; type: functional, cell-based
U-937 [14] = assay: Cell cycle arrest in human U937 cells assessed as accumulation at sub-G0/G1 phase at 250 uM after 24 hrs using propidium iodide staining by FACS analysis; type: functional, cell-based
[15] = Induction of free radicals production in carbonate buffer at pH 9 by electron spin resonance analysis; type: physicochemical
U-937 [16] = assay: Induction of apoptosis in human U937 cells assessed as activation of caspase-3 at 250 uM after 24 hrs by colorimetric assay; type: functional, cell-based
U-937 [17] = assay: Induction of apoptosis in human U937 cells assessed as active 11 kDa fragment of caspase-3 at 250 uM after 24 hrs by Western blot analysis; type: functional, cell-based
[18] = Induction of free radicals production in RPMI 1640 medium at pH 7.4 by electron spin resonance analysis; type: physicochemical
U-937 [19] = assay: Induction of apoptosis in human U937 cells assessed as reduction of normal cells at 1000 uM after 24 hrs by Annexin V-FITC double staining; type: functional, cell-based
U-937 [20] = assay: Induction of apoptosis in human U937 cells assessed as activation of caspase-3 at 1000 uM after 48 hrs by colorimetric assay; type: functional, cell-based
U-937 [21] = assay: Induction of DNA damage in human U937 cells; type: functional, cell-based
U-937 [22] = assay: Induction of cell differentiation in human U937 cells assessed as increase of rhC5a-induced response at 250 to 500 uM after 72 hrs by FACS flow cytometer analysis; type: functional, cell-based
Jurkat [23] = assay: Cytotoxicity against human Jurkat at 250 uM after 48 hrs by trypan blue assay; type: functional, cell-based
Jurkat [24] = assay: Induction of apoptosis in human Jurkat cells at 500 uM after 48 hrs by Annexin V-FITC double staining; type: functional, cell-based
Jurkat [25] = assay: Induction of apoptosis in human Jurkat cells assessed as activation of caspase-3 at 500 uM after 24 hrs by colorimetric assay; type: functional, cell-based
U-937 [26] = assay: Induction of cell differentiation in human U937 cells assessed as increase of CD11b and CD14 expression at 250 to 500 uM after 72 hrs by FACS flow cytometer analysis; type: functional, cell-based
U-937 [27] = assay: Induction of apoptosis in human U937 cells assessed as phosphatidylserine expression in plasma membrane at 1000 uM after 24 hrs by Annexin V-FITC double staining; type: functional, cell-based
U-937 [28] = assay: Induction of cell differentiation in human U937 cells assessed as increase of CD88 expression at 250 to 500 uM after 72 hrs by FACS flow cytometer analysis; type: functional, cell-based

| SMILES | Activity (U-937 [1]) | Activity (U-937 [2]) | CC50 (U-937 [3]) | IC50 (U-937 [4]) | Activity [5] | colony formation inhibition (active/not active) (U-937 [11]) | other results |
| --- | --- | --- | --- | --- | --- | --- | --- |
| Cc1cc(=O)oc2ccc(O)cc12 | Active | inactive | > 2 mM | – | – | – | – |
| CC(=O)c1c(O)ccc2c(C)cc(=O)oc12 | Active | inactive | > 1 mM | 454 µM | – | – | – |
| O=c1cccco1 | Active | – | > 2 mM | > 2000 µM | Not Active | – | – |
| COc1ccc2c(C)cc(=O)oc2c1OC | inactive | inactive | > 2 mM | 736 µM | Not Active | inactive | Activity (Jurkat [6]): inactive; Activity (PBMC): Non-toxic; Activity (U-937 [7]): inactive; Activity (U-937 [8]): Active; Activity (U-937 [9]): inactive; Activity (U-937 [10]): inactive |
| Cc1cc(=O)oc2cc(O)c(Cl)cc12 | inactive | inactive | 0.734 mM | 771 µM | – | – | – |
| COc1cc(C)oc(=O)c1 | Active | – | > 2 mM | > 2000 µM | Not Active | – | – |
| COc1ccc(/C=C/C(=O)O)cc1OC | – | – | > 2 mM | > 2000 µM | Active | – | – |
| Cc1cc(C)oc(=O)c1 | Active | – | > 2 mM | > 2000 µM | Not Active | – | – |
| COc1ccc(CCC(=O)O)cc1OC | inactive | – | > 2 mM | > 2000 µM | Active | – | Activity (Jurkat [6]): inactive; Activity (PBMC): Non-toxic; Activity (U-937 [7]): inactive; Activity (U-937 [9]): inactive; Activity (U-937 [10]): inactive |
| Cc1cc(O)cc(=O)o1 | Active | – | > 2 mM | > 2000 µM | Not Active | – | – |
| Cc1cc(O)nc2cc(O)ccc12 | Active | inactive | > 1 mM | 259 µM | – | – | – |
| Cc1cc(=O)oc2cc(O)c(O)cc12 [4-METHYLESCULETIN] | – | – | 0.076 mM | 97.4 µM | – | Active | Activity (U-937 [12]): Active; Activity (U-937 [13]): Active; Activity (U-937 [14]): Active; Activity [15]: Active; Activity (U-937 [16]): Active; Activity (U-937 [17]): Active; Activity [18]: Active |
| Cc1cc(=O)oc2cc(O)cc(O)c12 [5,7-DIHYDROXY-4-METHYLCOUMARIN] | Active | inactive | > 2 mM | > 2000 µM | – | – | – |
| O=C(O)/C=C/c1ccc(O)c(O)c1 [CAFFEIC ACID] | – | – | > 2 mM | 316 µM | – | inactive | Activity (U-937 [19]): inactive; Activity [15]: Active; Activity (U-937 [20]): inactive; Activity [18]: Active |
| O=C(O)/C=C/c1ccc(O)cc1 [COUMARIC ACID] | inactive | – | > 2 mM | > 2000 µM | – | – | – |
| O=C(O)CCc1ccc(O)c(O)c1 [DIHYDROCAFFEIC ACID] | – | – | > 2 mM | 213 µM | Active | inactive | Activity (Jurkat [6]): Active; Activity (U-937 [21]): inactive; Activity (U-937 [22]): Active; Activity (U-937 [7]): inactive; Activity (U-937 [19]): inactive; Activity (Jurkat [23]): Active; Activity [15]: Active; Activity (Jurkat [24]): inactive; Activity (Jurkat [25]): Active; Activity (U-937 [26]): Active; Activity (U-937 [27]): Active; Activity (U-937 [20]): inactive; Activity (U-937 [28]): Active; Activity [18]: Active |
| O=c1ccc2cc(O)c(O)cc2o1 [ESCULETIN] | – | – | 0.107 mM | 143 µM | – | Active | Activity (U-937 [12]): Active; Activity (U-937 [13]): Active; Activity (U-937 [14]): Active; Activity [15]: Active; Activity (U-937 [16]): Active; Activity (U-937 [17]): Active; Activity [18]: Active |
| COc1cc2ccc(=O)oc2c(O)c1O [FRAXETIN] | – | – | 0.0702 mM | 143 µM | – | Active | Activity (U-937 [12]): Active; Activity (U-937 [13]): Active; Activity (U-937 [14]): Active; Activity [15]: Active; Activity (U-937 [16]): Active; Activity (U-937 [17]): Active; Activity [18]: Active |
| Cc1cc(=O)oc2cc(O)ccc12 [HYMECROMONE] | Active | inactive | > 2 mM | 711 µM | – | inactive | Activity (U-937 [7]): inactive |
| COc1cc2ccc(=O)oc2cc1OC [SCOPARONE] | – | inactive | 1.29 mM | 590 µM | Not Active | – | – |
| COc1cc2ccc(=O)oc2cc1O [SCOPOLETIN] | inactive | inactive | > 2 mM | 976 µM | – | – | – |
